“Also recorded” adds a separate entry of the source.
Key:
[1] = tested on: muscle tissues and intestinal segments; conditions: cited from earlier work
[2] = tested on: DSS-induced colitis model mice; experiment: DSS-induced colitis model mice (body weight, disease score, survival, colon length, histology); type: in vivo, Male C57BL/6J Jms Slc mice
Experimental: Male C57BL/6J Jms Slc mice (8-week old) were fed with 4% dextran sulfate sodium (DSS) in water in place of drinking water for 9 days, followed by feeding drinking water for 3 days, inducing colitis in the mice. Mice were divided into three groups: (1) CRP40 group administered orally with CHP monohydrate (40 mg/kg body weight/day); (2) CycloZ40 group administered orally with a combination of CHP monohydrate 40 mg/kg+Zn gluconate 70 mg/kg; and (3) vehicle (control) group fed with drinking water. CHP hydrate and combination of CHP hydrate+Zn gluconate were administered to the animals starting from 3 days prior to the DSS administration and continued for 12 days until the animals were sacrificed. The above amount of the CHP monohydrate and the combination of CHP monohydrate and Zn gluconate were administered daily.
At day 12, the animals were sacrificed and their colon lengths were measured.
The intestinal tissues were fixed, paraffin-embedded, and stained with hematoxylin and eosin.
Histopathological evaluation of colon was scored according to the grading system listed below.

[3] = pKa of CHP hydrate material; type: physicochemical

Row | SMILES | zinc absorption and uptake [1] | protection of intestine ([2]; CHP alone 40 mg/kg/day as monohydrate compared with combination of CHP 40 mg/kg/day and Zn 70 mg/kg as zinc gluconate) | pKa [3] | histological scores ([2]; DSS-induced colitis mice, compared with control (vehicle) group) | histological examination of intestinal tissue (H&E) ([2]; DSS-induced colitis mice, epithelial lining, submucosa thickness, lymphatic infiltration, compared with vehicle group) | survival rate ([2]; DSS-induced colitis mice, experimental period of 14 days, CHP monohydrate 40 mg/kg/day, or plus Zn gluconate 70 mg/kg, about 70% of vehicle group died) | weight loss (body weight changes) ([2]; DSS-induced colitis mice, oral daily CHP monohydrate 40 mg/kg/day, day 12, compared with CycloZ40 and vehicle groups) | disease score (disease activity: weight loss, stool consistency, blood) ([2]; DSS-induced colitis mice, oral daily CHP monohydrate 40 mg/kg/day, day 12, compared with CycloZ40 and vehicle groups, monohydrate) | colon length ([2]; DSS-induced colitis mice, sacrificed at day 12, compared with vehicle and CycloZ40 groups)
1 | O=C1N[C@@H](Cc2cnc[nH]2)C(=O)N2CCC[C@@H]12 [CHP, Cyclo(-His-Pro)] | enhanced zinc absorption and uptake | greater protection of intestine | – | – | – | – | – | – | –
2 | O=C1N[C@@H](Cc2cnc[nH]2)C(=O)N2CCC[C@@H]12 [CRP40, CHP monohydrate] | – | – | ~6.4 | histologically more resistant to intestinal inflammation | protected from intestinal tissue damage | survived until the end of the experiment | the least | greatly improved; also recorded: the lowest | longest

From patent US20220054541A1, “METHOD FOR TREATING INFLAMMATORY BOWEL DISEASES” (NovMetaPharma Co., Ltd., priority 2020, published 2022)
